In EP0092173A1, “11-Beta-chlorosteroids, process for their preparation and pharmaceutical compositions containing them” (SCHERING AKTIENGESELLSCHAFT, priority 1982, dated 1983):

Tests used:
[1] = test system: infantilen weiblichen Kaninchen; test: Clauberg test for progestational (gestagenic) activity after oral administration; assay type: in vivo; details: for McPhail: infantile female rabbits; for Schwellendosis (McPhail 1,5) für die gestagene Wirkung: minimum amount for a positive effect (McPhail 1,5)
Excerpt: Die gestagene Wirkung wurde im üblichen Clauberg-Test nach oraler Applikation an infantilen weiblichen Kaninchen ermittelt.
Die zur Erzielung eines positiven Effekts benötigte Mindestmenge wird durch den McPhail-Wert 1,5 ausgedrückt.
In der folgenden Tabelle werden die Ergebnisse des Tests zusmmengestellt.

Androgen-Rezeptor = Androgen-Rezeptor (Homo sapiens, UniProt P10275); test: Androgen receptor test (competition factor); assay type: binding; details: assessment in words, based on the competition factor
Sequence of Androgen-Rezeptor (P10275 whole entry): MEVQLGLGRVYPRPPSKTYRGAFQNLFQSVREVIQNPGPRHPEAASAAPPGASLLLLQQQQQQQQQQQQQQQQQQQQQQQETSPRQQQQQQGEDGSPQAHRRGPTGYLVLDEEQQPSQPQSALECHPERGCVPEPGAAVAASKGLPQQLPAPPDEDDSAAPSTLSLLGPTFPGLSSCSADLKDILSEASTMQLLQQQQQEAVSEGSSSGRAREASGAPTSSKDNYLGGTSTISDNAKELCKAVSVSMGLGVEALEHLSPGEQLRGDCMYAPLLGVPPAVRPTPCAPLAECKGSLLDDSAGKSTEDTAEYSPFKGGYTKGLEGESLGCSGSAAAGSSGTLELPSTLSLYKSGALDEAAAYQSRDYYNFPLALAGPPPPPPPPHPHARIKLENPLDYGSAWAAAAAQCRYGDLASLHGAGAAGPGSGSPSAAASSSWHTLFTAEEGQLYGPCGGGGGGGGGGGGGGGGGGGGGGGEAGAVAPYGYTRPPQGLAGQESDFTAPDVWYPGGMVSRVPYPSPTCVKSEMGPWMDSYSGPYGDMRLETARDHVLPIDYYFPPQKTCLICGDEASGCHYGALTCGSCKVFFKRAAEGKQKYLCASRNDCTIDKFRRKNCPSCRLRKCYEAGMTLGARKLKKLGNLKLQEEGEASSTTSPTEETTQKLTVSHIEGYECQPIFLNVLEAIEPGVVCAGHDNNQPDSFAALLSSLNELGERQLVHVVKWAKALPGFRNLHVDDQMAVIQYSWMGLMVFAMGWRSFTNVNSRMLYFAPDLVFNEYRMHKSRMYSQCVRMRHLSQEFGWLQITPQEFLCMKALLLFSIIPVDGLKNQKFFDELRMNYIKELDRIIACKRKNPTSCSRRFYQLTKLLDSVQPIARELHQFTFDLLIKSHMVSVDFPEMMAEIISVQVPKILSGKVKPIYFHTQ

Row | SMILES | McPhail ([1]; Dosis 0,01 mg) | McPhail ([1]; Dosis 0,1 mg) | McPhail ([1]; Dosis 0,03 mg) | McPhail ([1]; Dosis 0,003 mg) | Schwellendosis (McPhail 1,5) für die gestagene Wirkung [1] | androgene Nebenwirkung (Androgen-Rezeptor)
1 | CC[C@]12C[C@H](Cl)[C@H]3[C@@H](CCC4=CC(=O)CC[C@@H]43)[C@@H]1CC[C@@]2(O)C#CCl [Verbindung A, 11ß-Chlor-17α-chlorethinyl-17ß-hydroxy-18-methyl-4-östren-3-on] | 1,9 | 3,3 | 3,0 | 1,2 | ~0,003 mg | nur eine ganz geringfügige androgene Nebenwirkung
2 | C#C[C@]1(O)CC[C@H]2[C@@H]3CCC4=CC(=O)CC[C@@H]4[C@H]3[C@@H](Cl)C[C@@]21CC [Verbindung B, 11ß-Chlor-17α-ethinyl-17ß-hydroxy-18-methyl-4-östren-3-on, reference compound] | 1,4 | – | 2,5 | 1,1 | ~0,01 mg | noch schwach androgen wirksam
